{
  "source": "patent US20100286262A1",
  "about": "“PTGS2 HAPLOTYPES” (priority 2007, published 2010)",
  "key": {"[1]": {"tested_on": "colorectal cancer patients (stage II/III) after potentially curative therapy", "experiment": "VICTOR trial: disease-free survival and recurrence", "format": "in vivo, human", "experimental": "(§1) This was a phase III randomised, placebo-controlled double-blind trial of R in patients after potentially-curative surgery and completion of adjuvant therapy for stage II/III CRC. 7000 patients were planned to receive 25 mg R daily or an identical placebo (P) for 2 or 5 years, however the trial was terminated early after the worldwide withdrawal of R. A revised protocol and statistical analysis plan permitted detection of a reduction (HR=0.75) in risk of death with 87% power, with one pre-planned event-driven interim analysis.\n(§2) Patients were randomly assigned to receive R or P at 151 hospitals in the United Kingdom. Inclusion criteria included: histologically proven stage II and III colorectal carcinoma in patients who had undergone complete resection of the primary tumour; WHO Performance Status 0 or 1; haematological, liver and renal function within the normal range. All patients had completed potentially curative therapy (surgery+/−radiotherapy+/−chemotherapy) 12 or fewer weeks previously and had given written informed consent. Patients with active peptic ulceration or gastrointestinal bleeding in the past year, a history of adverse reactions to NSAIDs, or a known sensitivity to R were excluded, as were those receiving long-term NSAID therapy (except for low-dose aspirin, <100 mg per day), those younger than 18 years, and women who were pregnant, lactating, or premenopausal but not using contraception. Patients with a history of cancer (other than adequately treated in situ carcinoma of the cervix, basal or squamous-cell carcinoma), inflammatory bowel disease, or severe congestive heart failure were also excluded.\n(§3) It was planned to randomly allocate R (one 25-mg tablet daily) or identical P to 7000 patients, with half of each group receiving the study drug for 2 or 5 years. Suitable patients were randomly assigned in a double blind fashion to R or P through the VICTOR Trial Office, which supplied drugs to participating hospitals every 6 months. Minimisation was used to balance allocations by stage (II, III), disease site (colon, rectum, recto-sigmoid), age (<50, 50-59, 60-69, 70+) prior adjuvant chemotherapy and radiotherapy.\n(§4) Data-collection forms were amended to solicit baseline data on cardiovascular risk factors, for all patients After worldwide withdrawal of rofecoxib all investigators and patients were informed, study treatment was stopped, and follow-up continued, at 3, 6, 12, 18 and 24 months after randomisation and annually thereafter. Patients received a colonoscopy 1-2 years after primary surgery and 2- to 3-yearly thereafter; a CT scan about 1 year after surgery; clinical examination and routine blood tests at outpatient visits. All recurrences were confirmed by CT or MRI scan and patients were flagged for survival with the UK's Office of National Statistics. Adverse event data were recorded systematically throughout the study and were reviewed by the trials team (RM, DJK and MJL) to clarify diagnoses.\n(§5) The original study was powered to detect a reduction in risk of death between treatments for stage II and stage III separately, (hazard ratio 0.80), with type I error 0.05. The modified statistical plan, after premature closure with 2434 patients, permitted detection of a reduction in risk of death of HR 0.75, 87% power, with type I error 0.05, and one interim analysis specified according to an O'Brien-Fleming alpha-spending rule when there were 350 events. The threshold for statistical significance for OS at this analysis is p<0.01325. OS, the primary endpoint, was measured from randomisation to death from any cause. Secondary endpoints include DFS, measured from randomisation to recurrence or death from any cause and recurrence-free survival, measured from randomisation to recurrence and/or colorectal cancer death. This is the report of the interim analysis, with 368 deaths. Kaplan-Meier curves and log-rank analysis were used for comparisons of OS and DFS. Subgroups were examined using HR plots. […]"}, "[2]": {"tested_on": "colorectal cancer patients (stage II/III) after potentially curative therapy", "experiment": "VICTOR phase III randomised placebo-controlled trial of rofecoxib: overall survival", "format": "in vivo, human", "experimental": "as §1, §2, §3, §4, §5"}},
  "data": [
    {"compound": "CS(=O)(=O)c1ccc(C2=C(c3ccccc3)C(=O)OC2)cc1", "note": "[rofecoxib, 3-phenyl-4-(4(methylsulfonyl)phenyl)-2-(5H)-furanone]", "values": [
      {"measurement": "number of patients still at risk (disease free survival, data of FIG. 6)", "setting": "[1]; 1 year from randomisation", "result": 1031},
      {"measurement": "number of patients still at risk (disease free survival, data of FIG. 6)", "setting": "[1]; 2 years from randomisation", "result": 824},
      {"measurement": "number of patients still at risk (disease free survival, data of FIG. 6)", "setting": "[1]; 3 years from randomisation", "result": 449},
      {"measurement": "number of patients still at risk (disease free survival, data of FIG. 6)", "setting": "[1]; 4 years from randomisation", "result": 114},
      {"measurement": "number of patients still at risk (disease free survival, data of FIG. 6)", "setting": "[1]; 5 years from randomisation", "result": 7},
      {"measurement": "HR for death or recurrence adjusted for stage, age, radiotherapy group and gender", "setting": "[1]; 95% CI 0.78, 1.07, p=0.30", "result": 0.91},
      {"measurement": "HR for disease recurrence or death from any cause (DFS), R compared with P", "setting": "[1]; 95% CI 0.78 to 1.07, P=0.25", "result": 0.91},
      {"measurement": "3-year DFS rate", "setting": "[1]; 95% CI 72.0 to 77.3, P group 72.6%", "result": 74.7, "unit": "%"},
      {"measurement": "Number of colorectal cancer recurrence events", "setting": "[1]; 297 in P arm", "result": 271},
      {"measurement": "Number of DFS events", "setting": "[1]; 316 in P group", "result": 291},
      {"measurement": "HR for colorectal cancer recurrence", "setting": "[1]; R vs P, 95% CI 0.77-1.06, p=0.22", "result": 0.90},
      {"measurement": "DFS events in the first year at risk from randomisation", "setting": "[1]; non-prespecified analysis, vs 145 in P, p=0.07", "result": 117},
      {"measurement": "Overall benefit in disease-free or overall survival (in words)", "setting": "[1]; specified analyses", "result": "no overall benefit"},
      {"measurement": "Recurrences in year 2", "setting": "[1]; vs 88 in P arm", "result": 99},
      {"measurement": "Recurrences in the first year", "setting": "[1]; vs 141 in P arm, p=0.06", "result": 112},
      {"measurement": "DFS events, year 2 onwards", "setting": "[1]; vs 171 in P, p=0.97", "result": 174},
      {"measurement": "Number of patients still at risk (overall survival, FIG. 5)", "setting": "[2]; 0 years from randomisation", "result": 1217},
      {"measurement": "Hazard ratio (HR) for dying from any cause (overall survival), R compared with P", "setting": "[2]; 25 mg daily, intention-to-treat, 1217 vs 1217, 95% CI 0.77 to 1.16, P=0.57", "result": 0.94},
      {"measurement": "Number of patients still at risk (overall survival, FIG. 5)", "setting": "[2]; 1 year from randomisation", "result": 1152},
      {"measurement": "Number of patients still at risk (overall survival, FIG. 5)", "setting": "[2]; 2 years from randomisation", "result": 1012},
      {"measurement": "Number of patients still at risk (overall survival, FIG. 5)", "setting": "[2]; 3 years from randomisation", "result": 663},
      {"measurement": "Number of patients still at risk (overall survival, FIG. 5)", "setting": "[2]; 4 years from randomisation", "result": 219},
      {"measurement": "Number of patients still at risk (overall survival, FIG. 5)", "setting": "[2]; 5 years from randomisation", "result": 21},
      {"measurement": "Number of deaths without recurrent disease", "setting": "[2]; 14 in P group", "result": 15},
      {"measurement": "3-year Kaplan-Meier OS rate", "setting": "[2]; 95% CI 85.7 to 89.6, P group 86.6", "result": 87.6, "unit": "%"},
      {"measurement": "HR for colorectal cancer-specific mortality", "setting": "[2]; R vs P, 95% CI 0.75-1.15, p=0.50", "result": 0.93},
      {"measurement": "Patient deaths with no reported cause", "setting": "[2]; each group", "result": "Five"},
      {"measurement": "Number of deaths", "setting": "[2]; over the study period, 191 in placebo group", "result": 177},
      {"measurement": "HR for dying adjusted for stage, age, radiotherapy group and aspirin use at baseline", "setting": "[2]; proportional hazards analysis, 95% CI 0.78-1.17, p=0.64", "result": 0.95}
    ]}
  ]
}
